The values below come from patent publication US10654814B2, “Bicyclic hydroxamic acids useful as inhibitors of mammalian histone deacetylase activity” (KANCERA AB, priority 2015, dated 2020).

The target of one experiment is HDAC1 (Homo sapiens (Human), UniProt Q13547). Briefly: HDAC1 in vitro enzymatic assay (fluorescence). The class given is biochemical. To be noted: Table 4 selectivity profiling. How it is done:
(§1) Biological Tests Method for Measurement of Enzymatic Activity of HDACs Materials & Methods
(§2) All Examples were tested in HDAC1,2,3,6 and 8 in vitro enzymatic assays. The assay principle is well known (Hauser et al. 2009, Bradner et al. 2010) and all necessary reagents like enzymes, substrates, developer and reference compounds are commercially available (see e.g. BPS Biosciences http://www.bpsbioscience.com/). Stock solutions (10 mM in DMSO) of compounds were serially diluted 1:3 in 11 concentrations with a top concentration of 200 μM for HDAC1,2,3 and 2 μM for HDAC6 and HDAC8. The enzymatic reactions were conducted in a mixture containing assay buffer, bovine serum albumin, HDAC substrate, and a test compound. After enzymatic reaction, developer was added and after an additional incubation time, fluorescence intensity was measured at an excitation wavelength of 360 nm and an emission wavelength of 460 nm. All experiments were performed in duplicate.

For experiment [1], the system named is U266 (multiple myeloma) cells. Briefly: CellTiter-Blue cell viability assay, U266. The class given is cell-based. As to conditions: Homo sapiens, U-266; 72 hours of treatment. The procedure:
(§3) Method for Measurement of Cell Viability
(§4) The CellTiter-Blue® Cell Viability Assay (Promega) provides a homogeneous, fluorometric method for estimating the number of viable cells present in multi-well plates. The assay uses the indicator dye resazurin to measure the metabolic capacity of cells. Viable cells retain the ability to reduce resazurin into resorufin, which is highly fluorescent.
(§5) Stock solutions (10 mM in DMSO) of compounds were serially diluted 1:2 in 11 concentrations. 50 nL/well (10 mM compound stock in DMSO) was acoustically dispensed in 384-well assay plates with an acoustic dispenser (EDC Biosystems ATS-100AV). Final starting concentration in the assay was 20 μM (0.2% DMSO) for test compounds. The following cell-lines (and origin) have been primarily used: PaCa2 (pancreatic), U266 (multiple myeloma), AMO-1 (plasmacytoma), and MDA-MB-231 (breast adenocarcinoma). PBMCs (peripheral blood mononuclear cells) from healthy donors were used as control cells. Cells were seeded in assay plates (384-well black/clear, Greiner #781091) pre-dispensed with compounds, 25 μL/well, and cultured for 72 hours. After 72 hours, Celltiter Blue reagent (Promega # G8081) was diluted 1:10 with PBS and then added to wells (5 μL/well). The plates were incubated for 2 hours following addition of reagent. The plates were read in an EnVision fluorescence reader (PerkinElmer) with Ex544 nm/Em590 nm. Results were calculated as % cell viability compared to background (cells treated with 0.2% DMSO).
For orientation: The colour change of resazurin is a common sign of viable cells or microbes.

The target in the next experiment is HDAC2 (Homo sapiens (Human), UniProt Q92769). The experiment is described as follows: HDAC2 in vitro enzymatic assay (fluorescence). To be noted: Table 4 selectivity profiling. The class given is biochemical. The procedure: as §1, §2
HDAC2, sequence (Q92769 whole entry): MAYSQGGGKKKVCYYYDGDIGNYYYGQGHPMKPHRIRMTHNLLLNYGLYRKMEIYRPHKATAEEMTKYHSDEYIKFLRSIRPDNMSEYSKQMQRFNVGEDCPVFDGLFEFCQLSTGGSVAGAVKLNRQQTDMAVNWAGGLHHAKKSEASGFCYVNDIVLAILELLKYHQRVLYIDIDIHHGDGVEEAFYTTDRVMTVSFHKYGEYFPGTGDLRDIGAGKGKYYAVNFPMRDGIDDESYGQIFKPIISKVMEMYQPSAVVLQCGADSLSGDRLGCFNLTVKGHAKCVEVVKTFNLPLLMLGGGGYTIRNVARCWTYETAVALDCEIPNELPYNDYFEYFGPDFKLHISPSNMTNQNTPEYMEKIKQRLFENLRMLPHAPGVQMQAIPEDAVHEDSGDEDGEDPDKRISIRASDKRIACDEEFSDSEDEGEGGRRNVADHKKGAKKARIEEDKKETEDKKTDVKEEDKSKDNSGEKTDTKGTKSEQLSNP
Experiment [2] has as its system AMO-1 (plasmacytoma) cells. The experiment is described as follows: CellTiter-Blue cell viability assay, AMO-1. The class given is cell-based. As to conditions: Homo sapiens, AMO1; 72 hours of treatment. How it is done: as §3, §4, §5
The subject of the next experiment is PaCa2 (pancreatic) cells. Briefly: CellTiter-Blue cell viability assay, PaCa2. The class given is cell-based. To be noted: PaCa-2; 72 hours of treatment. The procedure:
as §3, §4, §5

For another experiment, the target named is HDAC6 (Homo sapiens (Human), UniProt Q9UBN7). Briefly: HDAC6 in vitro enzymatic assay (fluorescence). The class given is biochemical. The procedure, abridged: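 Fluorogenic HDAC substrate reactions contained assay buffer, BSA and compound, followed by developer. Fluorescence was read at ex 360/em 460 nm. Compounds were tested as 11-point 1:3 dilutions from a top of 200 μM for HDAC1, 2 and 3, and from 2 μM for HDAC6, in duplicate.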
HDAC6, sequence (Q9UBN7 whole entry): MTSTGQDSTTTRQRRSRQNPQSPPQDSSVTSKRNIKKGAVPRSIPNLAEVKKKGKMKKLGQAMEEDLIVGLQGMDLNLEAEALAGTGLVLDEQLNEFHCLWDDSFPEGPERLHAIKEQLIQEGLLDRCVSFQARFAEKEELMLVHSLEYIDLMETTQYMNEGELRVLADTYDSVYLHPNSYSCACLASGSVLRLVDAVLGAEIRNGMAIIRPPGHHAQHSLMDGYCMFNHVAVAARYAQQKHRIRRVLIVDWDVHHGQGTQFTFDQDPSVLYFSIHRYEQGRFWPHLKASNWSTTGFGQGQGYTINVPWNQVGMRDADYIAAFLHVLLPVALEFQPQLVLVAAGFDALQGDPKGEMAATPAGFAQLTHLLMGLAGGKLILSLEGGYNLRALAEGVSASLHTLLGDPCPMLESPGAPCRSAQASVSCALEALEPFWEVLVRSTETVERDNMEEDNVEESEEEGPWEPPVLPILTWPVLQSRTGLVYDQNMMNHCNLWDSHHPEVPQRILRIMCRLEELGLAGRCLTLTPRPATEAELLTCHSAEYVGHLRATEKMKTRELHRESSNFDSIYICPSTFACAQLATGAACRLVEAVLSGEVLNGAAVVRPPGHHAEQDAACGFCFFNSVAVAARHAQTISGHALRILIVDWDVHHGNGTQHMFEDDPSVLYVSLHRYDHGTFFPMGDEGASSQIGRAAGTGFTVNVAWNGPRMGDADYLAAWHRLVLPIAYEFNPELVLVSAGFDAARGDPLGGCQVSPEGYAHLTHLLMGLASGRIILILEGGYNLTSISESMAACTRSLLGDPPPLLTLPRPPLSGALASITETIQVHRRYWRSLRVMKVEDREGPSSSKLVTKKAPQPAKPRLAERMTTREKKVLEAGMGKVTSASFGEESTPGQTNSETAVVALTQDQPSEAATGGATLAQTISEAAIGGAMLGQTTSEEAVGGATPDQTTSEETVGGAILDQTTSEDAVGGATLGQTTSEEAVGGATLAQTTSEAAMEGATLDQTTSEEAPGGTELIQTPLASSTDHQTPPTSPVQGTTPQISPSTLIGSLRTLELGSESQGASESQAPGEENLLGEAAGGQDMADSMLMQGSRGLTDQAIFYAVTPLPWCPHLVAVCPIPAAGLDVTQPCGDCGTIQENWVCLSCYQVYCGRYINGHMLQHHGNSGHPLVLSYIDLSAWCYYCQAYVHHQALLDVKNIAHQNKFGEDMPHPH

Experiment [3] relates to multiple myeloma cell line OPM-2. Briefly: Annexin V apoptosis assay (flow cytometry), OPM-2. The class given is cell-based. As to conditions: 72 hours, relative to 0.2% DMSO. An excerpt:
(§6) Method for Measurement of Apoptosis
(§7) The Annexin A5 (or Annexin V) affinity assay provides a method to quantify the number of cells undergoing apoptosis. The assay uses the protein annexin A5 conjugated to fluorescein (FITC Annexin V) and the fluorescent dye propidium iodide (PI) to label early apoptotic (annexin V positive, PI negative) and necrotic/dead cells (annexin V positive, PI positive) quantified by flow cytometry. The annexin A5 protein binds to membrane surfaces containing negatively charged phoshpolipids (phosphatidylserine) which are exposed by apoptotic and dead cells, but not by normal cells. PI binds to nucleic acids in cells which have completely lost the integrity of their plasma membrane, i.e. necrotic cells.
(§8) Standard Annexin V assay protocol was followed (see e.g. http://www.biolegend.com/pop_pdf.php?id=5161 and application references therein). 10,000 cells of each cell line were cultured in 400 μl of medium in 48 well plates. Compounds from 10 mM DMSO stock solutions were added to cells (DMSO content was 0.2%) and incubated for 48 or 72 hours followed by addition of FITC-Annexin V (BioLegend) and PI staining solution (BD Biosciences). The cells were analyzed by flow cytometry, at least 4,000 single cells were analyzed. Compounds were tested either individually at four different concentrations (1, 2.5, 5 and 10 μM) or in combination with 1 μM dexamethasone.
(§9) Annexin V assay results for one compound of the invention (Example 1) with and without 1 μM dexamethasone for the multiple myeloma cell lines OPM-2 and U266 are given in Table 6. In Table 6, the % apoptosis values with compound(s) present are relative to the absence of compounds (only 0.2% DMSO present).
Background: Flow cytometry measures light scatter and fluorescence of single cells or particles in a stream.

The test system of experiment [4] is MDA-MB-231 (breast adenocarcinoma) cells. The experiment is described as follows: CellTiter-Blue cell viability assay, MDA-MB-231. The class given is cell-based. As to conditions: Homo sapiens, 72 hours of treatment. How it is done:
as §3, §4, §5

The target of another experiment is HDAC8 (Homo sapiens (Human), UniProt Q9BY41). Briefly: HDAC8 in vitro enzymatic assay (fluorescence). The class given is biochemical. To be noted: Table 4 selectivity profiling. The procedure:
as §1, §2

A further experiment has as its target HDAC3 (Homo sapiens (Human), UniProt O15379). The experiment is described as follows: HDAC3 in vitro enzymatic assay (fluorescence). The class given is biochemical. As to conditions: Table 4 selectivity profiling. How it is done: as §1, §2
For experiment [5], the system named is PBMCs (peripheral blood mononuclear cells) from healthy donors. The experiment is described as follows: CellTiter-Blue cell viability assay, healthy PBMC. As to conditions: 72 hours of treatment. The class given is cell-based. How it is done: as §3, §4, §5
Experiment [6] has as its system multiple myeloma cell line U266. Briefly: Annexin V apoptosis assay (flow cytometry), U266. The class given is cell-based. To be noted: 72 hours, relative to 0.2% DMSO.
From the text: as §6, §7, §8, §9

Where [7] appears, read: Table 3, read-out: IC50 (nM) for inhibition of HDAC6.
[8] abbreviates: Table 4 selectivity profiling, read-out: IC50 (nM) HDAC6.

Where two headings read alike, the source gives them in different places.

HDAC3, sequence (O15379 whole entry): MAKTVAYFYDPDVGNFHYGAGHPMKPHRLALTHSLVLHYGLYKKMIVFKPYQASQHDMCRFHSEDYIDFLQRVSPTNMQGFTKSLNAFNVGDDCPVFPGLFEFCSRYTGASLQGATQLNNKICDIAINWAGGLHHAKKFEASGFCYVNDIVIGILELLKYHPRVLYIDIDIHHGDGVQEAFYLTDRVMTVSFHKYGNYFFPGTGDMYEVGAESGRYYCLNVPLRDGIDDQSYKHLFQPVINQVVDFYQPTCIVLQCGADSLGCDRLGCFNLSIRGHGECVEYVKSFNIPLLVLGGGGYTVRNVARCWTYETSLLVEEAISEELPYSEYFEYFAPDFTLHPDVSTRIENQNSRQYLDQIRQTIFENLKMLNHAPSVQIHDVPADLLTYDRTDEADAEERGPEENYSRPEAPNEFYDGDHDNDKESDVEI
HDAC3, sequence (Q9Y618 395-489 partner): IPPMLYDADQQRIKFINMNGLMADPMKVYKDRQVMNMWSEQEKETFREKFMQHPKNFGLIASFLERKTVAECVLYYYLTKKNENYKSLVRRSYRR
HDAC8, sequence (Q9BY41 whole entry): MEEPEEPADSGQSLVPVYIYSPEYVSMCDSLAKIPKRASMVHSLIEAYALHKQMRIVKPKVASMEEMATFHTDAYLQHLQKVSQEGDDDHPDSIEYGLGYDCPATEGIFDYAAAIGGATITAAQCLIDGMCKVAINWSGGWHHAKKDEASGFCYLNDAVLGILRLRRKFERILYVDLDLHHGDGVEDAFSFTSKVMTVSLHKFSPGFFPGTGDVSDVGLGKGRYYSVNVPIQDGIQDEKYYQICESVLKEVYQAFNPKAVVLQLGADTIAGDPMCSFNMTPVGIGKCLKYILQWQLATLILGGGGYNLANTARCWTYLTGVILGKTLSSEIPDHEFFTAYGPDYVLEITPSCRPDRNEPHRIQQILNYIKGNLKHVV
HDAC1, sequence (Q13547 whole entry): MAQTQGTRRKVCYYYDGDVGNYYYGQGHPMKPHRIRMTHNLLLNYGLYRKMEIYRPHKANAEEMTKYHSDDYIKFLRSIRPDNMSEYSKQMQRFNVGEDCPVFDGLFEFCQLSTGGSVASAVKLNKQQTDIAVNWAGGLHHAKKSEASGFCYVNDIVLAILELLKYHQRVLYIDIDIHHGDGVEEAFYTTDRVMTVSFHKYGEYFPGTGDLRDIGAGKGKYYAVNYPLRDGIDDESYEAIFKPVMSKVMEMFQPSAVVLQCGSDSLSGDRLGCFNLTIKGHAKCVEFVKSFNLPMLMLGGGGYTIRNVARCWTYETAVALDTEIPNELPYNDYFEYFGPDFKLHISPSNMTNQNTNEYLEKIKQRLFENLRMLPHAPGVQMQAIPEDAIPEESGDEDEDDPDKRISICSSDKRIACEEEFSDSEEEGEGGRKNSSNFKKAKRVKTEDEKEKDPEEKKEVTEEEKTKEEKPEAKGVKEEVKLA

`CC(C)c1ccc(-c2nc3cc(C(=O)NO)ccc3o2)cc1` [Example 1, N-Hydroxy-2-[4-(1-methylethyl)phenyl]-1,3-benzoxazole-5-carboxamide]: the IC50 against HDAC1 was determined as 4000 nM; in [1], 0.62 µM; against HDAC2 it was 13000 nM; in experiment [2], 0.39 µM; with PaCa2 (pancreatic) cells, 0.98 µM; at HDAC6 (setting [7]), 26 nM. Also, the IC50 was 26 nM at HDAC6 (setting [8]); 0.65 µM in experiment [4]; 1200 nM against HDAC8; 1700 nM at HDAC3; greater than 20 µM in experiment [5]. Moreover, the “% apoptosis OPM-2” value is recorded as 3% in experiment [3] (1 μM Ex. 1 alone), 37% in [3] (2.5 μM Ex. 1 alone), 38% in [3] (5 μM Ex. 1 alone) and 59% in experiment [3] (10 μM Ex. 1 alone). Also, the “% apoptosis U266” value in [6] (1 μM Ex. 1 alone) is reported as 30%; in experiment [6] (2.5 μM Ex. 1 alone), 59%; in [6] (5 μM Ex. 1 alone), 43%; in experiment [6] (10 μM Ex. 1 alone), 88%.
For `C[C@@H]1C[C@H]2[C@@H]3CCC4=CC(=O)C=C[C@]4(C)[C@@]3(F)[C@@H](O)C[C@]2(C)[C@@]1(O)C(=O)CO` [DEX, dexamethasone, reference compound], the “% apoptosis OPM-2” value in experiment [3] (1 μM DEX alone) amounted to 35%. In addition, the “% apoptosis U266” value in [6] (1 μM DEX alone) turned out to be 42%.
Regarding `CC(C)(C)c1ccc(-c2nc3cc(C(=O)NO)ccc3o2)cc1` [Example 4, 2-(4-tert-butylphenyl)-N-hydroxy-1,3-benzoxazole-5-carboxamide], the IC50 at HDAC1 was determined as 1100 nM; in [1], 0.49 µM; on HDAC2 it was 19000 nM; in [2], 0.38 µM; with PaCa2 (pancreatic) cells, 0.75 µM; at HDAC6 (setting [7]), 5 nM. Further, the IC50 on HDAC6 (setting [8]) was 5 nM; in [4] it was 0.81 µM; at HDAC8 it was 1000 nM; on HDAC3 it was 410 nM; in experiment [5] it was greater than 20 µM.
Turning to `COc1ncccc1-c1ccc(-c2nc3cc(C(=O)NO)ccc3o2)cc1` [Example 28, N-hydroxy-2-[4-(2-methoxypyridin-3-yl)phenyl]-1,3-benzoxazole-5-carboxamide], the IC50 amounted to 5600 nM on HDAC1; 0.62 µM in [1]; 28000 nM on HDAC2; 0.38 µM in [2]; 1 µM in the experiment with PaCa2 (pancreatic) cells; 28 nM on HDAC6 (setting [8]). Moreover, the 50% inhibitory concentration (IC50) in experiment [4] is 0.75 µM; against HDAC8, 700 nM; on HDAC3, 1800 nM; in experiment [5], greater than 20 µM.
Take `CC(C)c1ccc(-c2cc3ccc(C(=O)NO)cc3s2)cc1` [Example 88, N-Hydroxy-2-[4-(1-methylethyl)phenyl]-1-benzothiophene-6-carboxamide]: the IC50 against HDAC1 stood at 26000 nM; in experiment [1], 0.42 µM; against HDAC2, 14000 nM; in [2], 0.36 µM; in the experiment on PaCa2 (pancreatic) cells it was 0.82 µM; at HDAC6 (setting [7]), 37 nM. Also, the IC50 at HDAC6 (setting [8]) was 14 nM; in experiment [4], 1.1 µM; against HDAC8, 1100 nM; against HDAC3, 10000 nM; in experiment [5], greater than 20 µM.
In the case of `O=C(NO)c1ccc2oc(-c3ccc(-c4ccccc4F)cc3)nc2c1` [Example 21, 2-(2′-Fluorobiphenyl-4-yl)-N-hydroxy-1,3-benzoxazole-5-carboxamide], the IC50 is 5600 nM at HDAC1; 0.94 µM in experiment [1]; greater than 200000 nM against HDAC2; 0.64 µM in [2]; 1.2 µM in the experiment with PaCa2 (pancreatic) cells; 28 nM on HDAC6 (setting [7]). Further, the IC50 on HDAC6 (setting [8]) is 28 nM; in [4] it was 1.1 µM; against HDAC8, 700 nM; at HDAC3, 1800 nM; in experiment [5], greater than 20 µM.

As usually defined, the IC50 is the concentration that inhibits the measured activity by half.
